# According to patent US6603023B2 (priority 1996, dated 2003):
# Like-named read-outs stand apart in the source and are kept apart here. Marks after values point to notes of the source that are not given here.
# Tests used:
# [1] = system: CCRF-CEM human T-cell acute lymphoblastic leukemia cell line; assay: XTT cytotoxicity (cell growth inhibition), CCRF-CEM; conditions: for Rel. Value (potency relative to Epo B): CCRF-CEM leukemic cells
# Method: The DC-3F hamster lung fibroblast cell line and its actinomycin D-selected sublines (DC-3F/ADII and DC-3F/ADX) were obtained from the Memorial Sloan-Kettering Cancer Center (MSKCC).
# (§1) The drug-resistant cell lines were continuously cultured in the presence of the selecting agent, AD, DX, VBL or VM to maintain the drug resistant phenotypes. […] All cells were cultured in RPMI 1640-10% FBS at 37° C. 5% CO2 (see below).
# (§2) The cells were cultured at an initial density of 5×10^4 cells/mL. They were maintained in a 5% CO2-humidified atmosphere at 37° C. in RPMI-1640 medium (GIBCO-BRL, Gaithersburg, Md.) containing penicillin (100 U/mL), streptomycin ([…]) (GIBCO-BRL) and 10% heat inactivate fetal bovine serum. Culture for cell suspension (such as for CCRF-CEM, P388 and sublines), were performed by the XTT-microculture tetrazonium method (Scudiero, D. A. et al., Cancer Res. 1988, 48, 4827-4833) in duplicate in 96-well microtiter plates.
# (§3) 2′,3′-Bis(methoxy-4-nitro-5-sufophenyl)-5-[(phenylamino)carbonyl]2H-tetrazolium hyudroxide (XTT) was prepared at 1 mg/mL in prewarmed (37° C.) medium without serum. Phenazine methosulfate (PMS) and fresh XTT were mixed together to obtain 0.025 mM PMS-XTT solution (25 μL of the stock 5 mM PMS was added per 5 mL of 1 mg/mL XTT). Following a 72 h incubation, 50 μL of the assay aliquots were added to each well of the cell culture. After incubation at 37° C. for 4 h, absorbance at 450 nm and 630 nm was measured with a microplate reader (EL340, Bio-Tek Instruments, Inc., Winooski, Vt.).
# [2] = system: CCRF-CEM/VBL100; assay: cells; format: cell-based, human; conditions: read-out: IC50
# Method: as §1, §2, §3
# [3] = system: human mammary carcinoma MX-1 xenograft
# Method: (§4) DMSO was used as a vehicle for epothilones. Each mouse received ≦40 μL DMSO in all experiments.
# (§5) Athymic nude mice (nu/nu) were used for MX-1 and MCF-7/Adr human mammary carcinoma xenografts. Mice were obtained from Taconic Laboratory Animals and Service (Germantown, N.Y.: outbred, Swiss background).
# [4] = system: MDR human mammary adenocarcinoma MCF-7/Adr xenograft; assay: in vivo
# Method: as §4, §5
# [5] = system: Human Lymphoblastic Leukemia CCRF-CEM; assay: CCRF-CEM xenograft in nude mice, i.v. 6 h infusion; format: in vivo; conditions: for Average Body Weight, Day 21: initial weight
# [6] = Table 5, CCRF-CEM/VLB, single determinations
# [7] = camptothecin 3 mg/kg i.p. Q2Dx5 from day 8, day 11
# [8] = camptothecin 3 mg/kg i.p. Q2Dx5 from day 8, day 13
# [9] = camptothecin 3 mg/kg i.p. Q2Dx5 from day 8, day 15
# [10] = camptothecin 3 mg/kg i.p. Q2Dx5 from day 8, day 17
# [11] = high doses: Taxol 12, Adriamycin 3, Camptothecin 3.0 mg/kg i.p. day 8,10,12,14,16
# [12] = Dose DesoxyepoB 40, Taxol 20, i.v. infusion 6 hr on day 21,23,25,27
# [13] = Table 26, Dose Q2D x 4: DesoxyepoB 40, Taxol 20
# [14] = high doses: dEpoB 25, EpoB 0.6, Taxol 10, Vinblastine 0.4 mg/kg i.p. Q2D from day 7
# [15] = low doses: dEpoB 15, EpoB 0.3, Taxol 5, Vinblastine 0.2 mg/kg i.p. Q2D day 7-15
smiles,measurement,setting,value
CCC[C@@]12CCC[C@H](C)[C@H](O)[C@@H](C)C(=O)C(C)(C)[C@@H](O)CC(=O)O[C@H](/C(C)=C/c3csc(C)n3)C[C@@H]1O2 [#24],IC50,[1],0.0078 µM
same,IC50,"[1]; Table 5, single determinations",0.0078 µM
same,IC50,"[1]; Table 7, CEM",0.0078 µM
same,IC50,[2]; [6],0.053 µM
same,IC50,"[2]; Table 7, CEM/VBL",0.053 µM
same,IC50,[2],0.053 µM
CC/C1=C/C[C@@H](/C(C)=C/c2csc(C)n2)OC(=O)C[C@H](O)C(C)(C)C(=O)[C@H](C)[C@@H](O)[C@@H](C)CCC1 [#25],IC50,[1],0.021 µM
same,Rel. Value (potency relative to Epo B),[1],1/60
same,IC50,"[1]; Table 7, CEM",0.0212 µM
same,IC50,[2]; [6],0.077 µM
same,IC50,"[2]; Table 7, CEM/VBL",0.077 µM
same,IC50,[2],0.077 µM
CCC1=CCC(C(C)=Cc2csc(C)n2)OC(=O)CC(O)C(C)(C)C(=O)C(C)C(O)C(C)CCC1 (stereo not drawn) [#26],IC50,[1],0.005 µM
same,Rel. Value (potency relative to Epo B),[1],1/157
same,IC50,"[1]; Table 5, single determinations",0.055 µM
same,IC50,"[1]; Table 7, CEM",0.0545 µM
same,IC50,[2]; [6],0.197 µM
same,IC50,"[2]; Table 7, CEM/VBL",0.197 µM
same,IC50,[2],0.197 µM
CC[C@@]12CCC[C@H](C)[C@H](O)[C@@H](C)C(=O)C(C)(C)[C@@H](O)CC(=O)O[C@H](/C(C)=C/c3csc(C)n3)C[C@@H]1O2 [#27],IC50,[1],0.001 µM
same,fold more potent than Taxol,[1]; CCRF-CEM cells,> 2 fold
same,IC50,"[1]; Table 5, single determinations",0.001 µM
same,IC50,"[1]; Table 7, CEM",0.001 µM
same,IC50,[2]; [6],0.0072 µM
same,IC50,"[2]; Table 7, CEM/VBL",0.0072 µM
same,IC50,[2],0.0072 µM
"CC[C@@]1(O)C(=O)OCc2c1cc1n(c2=O)Cc2cc3ccccc3nc2-1 [Campothecin, camptothecin]",Therapeutic effect Rank Order,"[3]; MX-1, i.p., comparison with Camptothecin, VBL, EpoB (order wraps over rows r7-r8)",dEpoB > Camptothecin >
same,toxicity,[4]; CPT 3 mg/kg Q2Dx5 i.p.,moderate toxicity without lethality
same,Therapeutic effect Rank Order,"[4]; MCF-7/Adr, i.p. (order wraps over rows r13-r14)",dEpoB >> Camptothecin >
same,Toxicity Death,[4]; camptothecin 3 mg/kg i.p. Q2Dx5 from day 8,0/6
same,Average Body Weight Change,[4]; [7],-0.6 g
same,Average Tumor Size (T/C),[4]; [7],0.95
same,Average Body Weight Change,[4]; [8],-0.4 g
same,Average Tumor Size (T/C),[4]; [8],0.76
same,Average Body Weight Change,[4]; [9],-0.8 g
same,Average Tumor Size (T/C),[4]; [9],0.61
same,Average Body Weight Change,[4]; [10],-0.9 g
same,Average Tumor Size (T/C),[4]; [10],0.43*
same,tumor size reduction,"[4]; camptothecin 3 mg/kg, day 17",57%
same,"Average Body Weight (change), Day 11",[4]; [11],-0.6 g
same,"Average Body Weight (change), Day 13",[4]; [11],-0.4 g
same,"Average Body Weight (change), Day 15",[4]; [11],-0.8 g
same,"Average Body Weight Change, Day 17",[4]; [11],-0.9 g
same,"Average Tumor Volume (T/C), Day 11",[4]; [11],0.95 T/C
same,"Average Tumor Volume (T/C), Day 13",[4]; [11],0.76 T/C
same,"Average Tumor Volume (T/C), Day 15",[4]; [11],0.61 T/C
same,"Average Tumor Volume (T/C), Day 17",[4]; [11],0.43 T/C
same,Died,[4]; [11],0/6
same,"Average Body Weight, Day 8","[4]; initial weight, first treatment day, high doses: Taxol 12, Adriamycin 3, Camptothecin 3.0 mg/kg i.p. day 8,10,12,14,16",24.5 g
C/C1=C/C[C@@H](/C(C)=C/c2csc(C)n2)OC(=O)C[C@H](O)C(C)(C)C(=O)[C@H](C)[C@@H](O)[C@@H](C)CCC1 [DesoxyepoB],"Average Body Weight Changes, Day 23",[5]; [12],-1.4 g
same,"Average Body Weight Changes, Day 25",[5]; [12],-3.6 g
same,"Average Body Weight Changes, Day 27",[5]; [12],-3.9 g
same,"Average Body Weight Changes, Day 29",[5]; [12],-5.2 g
same,"Average Body Weight Changes, Day 31",[5]; [12],-4.2 g
same,"Average Body Weight Changes, Day 33",[5]; [12],-3.1 g
same,"Average Body Weight Changes, Day 35",[5]; [12],-2.3 g
same,"Average Body Weight Changes, Day 37",[5]; [12],-1.2 g
same,"Average Body Weight Changes, Day 39",[5]; [12],-0.2 g
same,"Average Body Weight Changes, Day 41",[5]; [12],+0.9 g
same,"Average Tumor Size (T/C), Day 21",[5]; [12],1.10 T/C
same,"Average Tumor Size (T/C), Day 23",[5]; [12],0.73 T/C
same,"Average Tumor Size (T/C), Day 25",[5]; [12],0.31 T/C
same,"Average Tumor Size (T/C), Day 27",[5]; [12],0.09 T/C
same,"Average Tumor Size (T/C), Day 29",[5]; [12],0 T/C
same,"Average Tumor Size (T/C), Day 31",[5]; [12],0 T/C
same,"Average Tumor Size (T/C), Day 33",[5]; [12],0 T/C
same,"Average Tumor Size (T/C), Day 35",[5]; [12],0 T/C
same,"Proportion of Tumor Disappearance (n/total), Day 21",[5]; [12],0/3
same,"Proportion of Tumor Disappearance (n/total), Day 23",[5]; [12],0/3
same,"Proportion of Tumor Disappearance (n/total), Day 25",[5]; [12],0/3
same,"Proportion of Tumor Disappearance (n/total), Day 27",[5]; [12],0/3
same,"Proportion of Tumor Disappearance (n/total), Day 29",[5]; [12],3/3
same,"Proportion of Tumor Disappearance (n/total), Day 31",[5]; [12],3/3
same,"Proportion of Tumor Disappearance (n/total), Day 33",[5]; [12],3/3
same,"Proportion of Tumor Disappearance (n/total), Day 35",[5]; [12],3/3
same,"Proportion of Tumor Disappearance (n/total), Day 37",[5]; [12],1/3
same,"Proportion of Tumor Disappearance (n/total), Day 39",[5]; [12],1/3
same,"Proportion of Tumor Disappearance (n/total), Day 41",[5]; [12],0/3
same,"Average Body Weight Change, Day 23",[5]; [13],-1.4 g
same,"Average Body Weight Change, Day 25",[5]; [13],-3.6 g
same,"Average Body Weight Change, Day 27",[5]; [13],-3.9 g
same,"Average Body Weight Change, Day 29",[5]; [13],-5.2 g
same,"Average Body Weight Change, Day 31",[5]; [13],-4.2 g
same,"Average Tumor Size (T/C), Day 23",[5]; [13],0.68 T/C
same,"Average Tumor Size (T/C), Day 25",[5]; [13],0.30 T/C
same,"Average Tumor Size (T/C), Day 27",[5]; [13],0.09 T/C
same,"Average Tumor Size (T/C), Day 29",[5]; [13],0 T/C
same,"Average Tumor Size (T/C), Day 31",[5]; [13],0 T/C
same,Tumor Disappearance,[5]; [13],3/3
same,"Average Body Weight, Day 21",[5]; [13],26.6 g
same,"Average Body Weight, Day 21",[5]; [12],26.6 g
C/C1=C/C[C@@H](/C(C)=C/c2csc(C)n2)OC(=O)C[C@H](O)C(C)(C)C(=O)[C@H](C)[C@@H](O)[C@@H](C)CCC1 [Desoxyepothione B],cured on day 35 (no detectable tumor),[3]; Desoxyepothilone B 25 mg/kg i.p. Q2D day 7-15,(1/6 cured on day 35)
same,"Average Body Weight (change), Day 11",[3]; [14],+0.4 g
same,"Average Body Weight (change), Day 13",[3]; [14],+0.7 g
same,"Average Body Weight (change), Day 15",[3]; [14],+1.0 g
same,"Average Body Weight Change, Day 17",[3]; [14],+0.7 g
same,"Average Tumor Volume (T/C), Day 11",[3]; [14],0.38 T/C
same,"Average Tumor Volume (T/C), Day 13",[3]; [14],0.11 T/C
same,"Average Tumor Volume (T/C), Day 15",[3]; [14],0.05 T/C
same,"Average Tumor Volume (T/C), Day 17",[3]; [14],0.04 T/C
same,Note: died (mice died/total),[3]; [14],0/6 died
same,"Average Body Weight, Day 7","[3]; initial weight, first treatment day, high doses: dEpoB 25, EpoB 0.6, Taxol 10, Vinblastine 0.4 mg/kg i.p. Q2D from day 7",27.0 g
same,"Average Body Weight (change), Day 11",[3]; [15],+0.8 g
same,"Average Body Weight (change), Day 13",[3]; [15],+1.1 g
same,"Average Body Weight (change), Day 15",[3]; [15],+1.6 g
same,"Average Body Weight Change, Day 17",[3]; [15],+1.5 g
same,"Average Tumor Volume (T/C), Day 11",[3]; [15],0.65 T/C
same,"Average Tumor Volume (T/C), Day 13",[3]; [15],0.46 T/C
same,"Average Tumor Volume (T/C), Day 15",[3]; [15],0.49 T/C
same,"Average Tumor Volume (T/C), Day 17",[3]; [15],0.41 T/C
same,Note: died (mice died/total),[3]; [15],0/6 died
